This is an account of results in publication PMC6137088, “The Role of Outer Membrane Proteins and Lipopolysaccharides for the Sensitivity of Escherichia coli to Antimicrobial Peptides” (Frontiers in Microbiology, 2018).

In brackets after ≈: the same amount, converted by molar mass. Where no end group is shown, it is not given here.

The test system of assay [1] is E. coli BW25113 gmhA::kan. The assay is classed as cell-based, Escherichia coli. The note with it: Table 3; BW25113 gmhA::kan; Mueller-Hinton-II, 16–20 h; duplicates (*) or triplicates. An excerpt:
(§1) The E. coli strains 470, F632, F653 and F2513 were kindly provided by Prof. H. Brade and Prof. S. Muller-Loennies, Research Center Borstel, Leipniz-Center for Medicine and Biosciences, Germany. E. coli BW25113 (CGSC#:7636), a derivative of F^−, λ^− E. coli K12 strain BD792 is the wild-type strain which was used in the generation of the KEIO collection and ordered from the Coli Genetic Stock Centre (CGSC, Yale University). E. coli JW3596, E. coli JW3024, E. coli JW3595, E. coli JW3606, E. coli JW0212, E. coli JW1667, E. coli JW0554, E. coli JW3605 and E. coli JW3600 are isogenic mutants of waaC, waaE, waaF, waaG, gmhA (lpcA), lpp, ompT, waaP, or waaY derived from the parental strain E. coli BW25113 and were ordered from the KEIO collection (Baba et al., [2006]). E. coli ATCC25922 is a clinical isolate, serotype O6, often used as control strain in antimicrobial susceptibility testing was ordered from the ATCC strain collection. All strains were grown in Mueller-Hinton-II medium and incubation took place aerobically at 37°C for 18–20 h.
(§2) The minimum inhibitory concentrations (MICs) of the AMPs were measured in 96-well microtiter plates according the Clinical and Laboratory Standards Institute [CLSI, formerly National Committee for Clinical Laboratory Standards (NCCLS)] (Wikler et al., [2009]). Liquid Mueller-Hinton-II medium containing increasing concentrations of AMPs is inoculated with a defined number of cells (~10^5 CFUs/ml) in 96-well microtiter plates (polypropylene). Each microtiter plate includes a positive growth control and a negative control (sterile control). After incubation, the minimal inhibitory concentration (MIC) is determined by the lowest concentration showing no visible growth. All plates were incubated for 16–20 h.

In assay [2] the test system is E. coli BW25113 ompT::kan. The assay is classed as cell-based, Escherichia coli. The note with it: Table 3; BW25113 ompT::kan; Mueller-Hinton-II, 16–20 h; duplicates (*) or triplicates.
Description: as §1, §2

Assay [3] deals with E. coli BW25113 waaC::kan. The assay is classed as cell-based, Escherichia coli. The following applies: Table 3; BW25113 waaC::kan; Mueller-Hinton-II, 16–20 h; duplicates (*) or triplicates.
Description: as §1, §2

Assay [4] deals with E. coli BW25113 waaE::kan. The assay is classed as cell-based, Escherichia coli. The following applies: Table 3; BW25113 waaE::kan; Mueller-Hinton-II, 16–20 h; duplicates (*) or triplicates.
Description: as §1, §2

Assay [5] deals with E. coli BW25113 waaF::kan. The assay is classed as cell-based, Escherichia coli. The note with it: Table 3; BW25113 waaF::kan; Mueller-Hinton-II, 16–20 h; duplicates (*) or triplicates.
Description: as §1, §2

Assay [6] concerns E. coli BW25113 waaG::kan. The assay is classed as cell-based, Escherichia coli. The note with it: Table 3; BW25113 waaG::kan; Mueller-Hinton-II, 16–20 h; duplicates (*) or triplicates.
Description: as §1, §2

The subject of assay [7] is E. coli BW25113 waaP::kan. The assay is classed as cell-based, Escherichia coli. The note with it: Table 3; BW25113 waaP::kan; Mueller-Hinton-II, 16–20 h; duplicates (*) or triplicates.
Description: as §1, §2

The subject of assay [8] is E. coli BW25113 waaY::kan. The assay is classed as cell-based, Escherichia coli. The following applies: Table 3, Mueller-Hinton-II, 16–20 h, duplicates (*) or triplicates.
Description: as §1, §2

For assay [9], the system named is E. coli BW25113. The assay is classed as cell-based, Escherichia coli. The following applies: for MIC: Table 3, E. coli BW25113 wild type, Mueller-Hinton-II, ~10^5 CFUs/ml, 16–20 h, duplicates (*) or triplicates; for Antimicrobial activity (MIC): Table 4, E. coli BW25113 (K12 core type), triplicates.
Description: as §1, §2

In assay [10] the test system is E. coli F2513 (R4). The assay is classed as cell-based, Escherichia coli. The note with it: Table 4; E. coli F2513 (R4 prototype, rough LPS); triplicates.
Description: as §1, §2

Assay [11] deals with E. coli F470 (R1). The assay is classed as cell-based, Escherichia coli. The following applies: Table 4; E. coli F470 (R1 prototype, rough LPS); triplicates.
Description: as §1, §2

Assay [12] deals with E. coli F632 (R2). The assay is classed as cell-based, Escherichia coli. The following applies: Table 4; E. coli F632 (R2 prototype, rough LPS); triplicates.
Description: as §1, §2

Assay [13] deals with E. coli F653 (R3). The assay is classed as cell-based, Escherichia coli. The following applies: Table 4; E. coli F653 (R3 prototype, rough LPS); triplicates.
Description: as §1, §2

The test system of assay [14] is E. coli strains representing core types K12, R1, R2, R3, R4 and ATCC25922. The assay is classed as cell-based, Escherichia coli. The following applies: span over isolates and core types of Table 4.
Description: as §1, §2

For assay [15], the system named is E. coli ATCC25922 ΔwaaC. The assay is classed as cell-based, Escherichia coli. The following applies: Table 6, triplicates.
Description: as §1, §2

The test system of assay [16] is E. coli ATCC25922 ΔwaaE. The assay is classed as cell-based, Escherichia coli. The following applies: Table 6, triplicates.
Description: as §1, §2

Assay [17] relates to E. coli ATCC25922 ΔwaaF. The assay is classed as cell-based, Escherichia coli. The note with it: Table 6, triplicates.
Description: as §1, §2

Assay [18] relates to E. coli ATCC25922 ΔwaaG. The assay is classed as cell-based, Escherichia coli. The note with it: Table 6, triplicates.
Description: as §1, §2

For assay [19], the system named is E. coli ATCC25922. The assay is classed as cell-based, Escherichia coli. The following applies: Table 6; E. coli ATCC25922 wild-type; triplicates.
Description: as §1, §2

Assay [20] deals with S. typhimurium LT2. As to the kind of experiment: MIC testing (CLSI broth microdilution). The assay is classed as cell-based. The note with it: Table 6, triplicates. On the procedure: as §2
In assay [21] the test system is Y. ruckeri 392/2003. As to the kind of experiment: MIC testing (CLSI broth microdilution). The assay is classed as cell-based. The following applies: Table 6, triplicates. On the procedure:
as §2
A general note: Broth dilution looks for growth in wells or tubes with falling amounts of substance.

Assay [22] relates to E. coli BW25113 lpp::kan. The assay is classed as cell-based, Escherichia coli. The following applies: Table 3; BW25113 lpp::kan; Mueller-Hinton-II, 16–20 h; duplicates (*) or triplicates.
Description: as §1, §2

Assay [23] relates to enterohemorrhagic E. coli EHEC EDL933. The following applies: ref Thomassin et al., 2012; cited from earlier work. An excerpt: (§3) Bacterial pathogens have evolved different mechanisms to resist the antimicrobial activity of cationic AMPs (Peschel and Sahl, [2006]). The production of proteases degrading and thereby inactivating cationic AMPs is one obvious way for bacteria to protect themselves against antimicrobials. Several omptins such as OmpT, and PgtE, all proteases found in the OM of various Gram-negative pathogens belonging to the Enterobacteriaceae family, have been associated with the degradation of AMPs (Hritonenko and Stathopoulos, [2007]). In particular, OmpT has been implicated in the proteolytic degradation ...

The subject of assay [24] is enteropathogenic E. coli EPEC E2348/69 ΔompT. The note with it: ref Thomassin et al., 2012; cited from earlier work.
Description: as §3

Assay [25] has as its system uropathogenic E. coli CFT073ΔompT. The note with it: ref Brannon et al., 2013; cited from earlier work.
Description: as §3

For orientation: MIC means the least concentration at which growth counts as inhibited. Low values mean greater potency, high ones weaker potency. In the case of `CC[C@H](C)[C@H](NC(=O)CN)C(=O)NCC(=O)N[C@@H](C)C(=O)N[C@H](C(=O)N[C@@H](CC(C)C)C(=O)N[C@@H](CCCCN)C(=O)N[C@H](C(=O)N[C@@H](CC(C)C)C(=O)N[C@H](C(=O)N[C@H](C(=O)NCC(=O)N[C@@H](CC(C)C)C(=O)N1CCC[C@H]1C(=O)N[C@@H](C)C(=O)N[C@@H](CC(C)C)C(=O)N[C@H](C(=O)N[C@@H](CO)C(=O)N[C@@H](Cc1c[nH]c2ccccc12)C(=O)N[C@H](C(=O)N[C@@H](CCCCN)C(=O)N[C@@H](CCCNC(=N)N)C(=O)N[C@@H](CCCCN)C(=O)N[C@@H](CCCNC(=N)N)C(=O)N[C@@H](CCC(N)=O)C(=O)N[C@@H](CCC(N)=O)C(N)=O)[C@@H](C)CC)[C@@H](C)CC)[C@@H](C)O)[C@@H](C)O)C(C)C)C(C)C` [Melittin], the MIC was 2 ^* μg/ml in assay [1]; 32 ^* μg/ml in assay [2]; 4 µg/mL (≈ 1.41 µM) in assay [3]; 4 µg/mL (≈ 1.41 µM) in [4]; 4 µg/mL (≈ 1.41 µM) in assay [5]; 4 µg/mL (≈ 1.41 µM) in [6]. The values for the minimal inhibitory concentration (MIC) in assay [7], in [8] and in assay [9] were 4 µg/mL (≈ 1.41 µM), 16 to 32 µg/mL and 16 to 32 µg/mL, respectively. In addition, the “Antimicrobial activity (MIC)” value in assay [10] is 4 µg/mL; in assay [11], 16 µg/mL; in assay [12] it was 32 µg/mL; in assay [13] it was 32 µg/mL. Further, the “MIC over all the tested E. coli strains” value in assay [14] fell in the range of 4 to 32 µg/mL.
As for “GLRKRLRKFRNKIKEKLKKIGQKIQGLLPKLAPRTDY [Cap18]”, the “Antimicrobial activity: MIC” value is 2 to 4 µg/mL in [15]; 4 µg/mL in assay [16]; 2 to 4 µg/mL in assay [17]; 4 µg/mL in assay [18]; 4 to 8 µg/mL in assay [19]; 4 to 8 µg/mL in assay [20]. Also, in [21], the “Antimicrobial activity: MIC” value was in the range of 2 to 4 µg/mL. Further, the minimum inhibitory concentration (MIC) in assay [1] was 4 to 8 µg/mL; in assay [2], 4 to 8 µg/mL; in assay [3], 4 µg/mL; in [4], 4 µg/mL; in assay [5], 4 µg/mL; in assay [6], 4 µg/mL. Further, the minimal inhibitory concentration (MIC) in assay [7], in assay [8] and in [9] was 4 to 8 µg/mL each time. Besides, the “Antimicrobial activity (MIC)” value was 4 to 8 µg/mL in assay [9]; 2 to 4 µg/mL in assay [10]; 4 µg/mL in assay [11]; 4 µg/mL in assay [12]; 4 to 8 µg/mL in [13]. Further, the “MIC over all the tested E. coli strains” value in assay [14] was in the range of 4 to 8 µg/mL.
Regarding “GLRKKFRKTRKRIQKLGRKIGKTGRKVWKAWREYGQIPYPCRI [Cap11]”, the minimum inhibitory concentration (MIC) in assay [1] is 8 ^* μg/ml; in assay [22] it was 8 ^* μg/ml; in assay [3], 8 µg/mL; in [4], 8 µg/mL; in [5], 8 µg/mL; in assay [6] it was 8 µg/mL. Further, the results for the MIC in assay [7], in assay [8] and in assay [9] were 8 to 16 µg/mL, 8 to 16 µg/mL and 8 µg/mL, respectively. The “Antimicrobial activity (MIC)” value is 8 µg/mL in assay [9]; 4 to 8 µg/mL in assay [10]; 16 µg/mL in assay [11]; 8 µg/mL in assay [12]; 16 µg/mL in assay [13].
Consider LL-37, for which the “decrease of MIC by loss of OmpT in EHEC EDL933 (factor)” value in [23] is on record as 2. The “decrease in MIC in the ΔompT mutant compared to parental EPEC E2348/69 (factor)” value in assay [24] is “unchanged”. For the same compound, the “change of MIC in CFT073ΔompT compared to wild-type CFT073” value in assay [25] is given as “unchanged”.
